Results on 3 molecules are retold here after patent US20220142957A1, “TERPENE BASED THERAPEUTIC DEEP EUTECTIC SYSTEM, METHOD OF OBTAINING AND USES THEREOF” (priority 2019, published 2022).

Data set [1] relates to HT29 cells. The data set can be described thus: Cell cycle assessment by flow cytometry (propidium iodide). The note with it: 24 hours, non-cytotoxic concentrations (FIG. 5A). For orientation: A flow cytometer gives signals particle by particle.
Data set [2] is described as follows: Cytotoxicity assay in confluent, non-differentiated Caco-2 cells (MTS). The format is cell-based, human. As to conditions: human, confluent, non-differentiated Caco-2 cells, isolated compounds, mean ± SD. How it is done: (§1) The cell culture medium and supplements were purchased from Invitrogen (Gibco, Invitrogen Corporation, UK).
(§2) Cells incubated only with culture medium were considered as control. […] At least three independent experiments were performed in triplicate.
(§3) A p-value<0.05 was considered statistically significant.

The test system of data set [3] is HT29 cells. Briefly: Antiproliferative assay in HT29 cells (MTS). The format is cell-based, human. The note with it: 24 hours, mean ± SD. How it is done: In one embodiment, human Caco-2 and HT29 cell lines were obtained from Deutsche Sammlung von Mikroorganismen and Zellkulturen (DSMZ, Germany) and American Type Culture Collection (ATCC, USA), respectively. These cell lines were cultured in RPMI 1640 medium supplemented with 10% of heat-inactivated Fetal Bovine Serum (FBS). […] Cells were maintained at 37° C. with 5% CO2 in a humidified incubator and routinely grown as a monolayer in 75 cm^2 culture flasks. The cell culture medium and supplements were purchased from Invitrogen (Gibco, Invitrogen Corporation, UK). In one embodiment, the antiproliferative effect of […] and standard compounds was evaluated in HT29 cells. Briefly, cells were seeded at a density of 1×10^4 cells/well in 96-well culture plates. […] Cells incubated only with culture medium were considered as control. Cell proliferation was measured after 24 hours using MTS reagent, as mentioned above. Results were expressed in terms of percentage of living cells relative to the control. At least three independent experiments were performed in triplicate. In one embodiment, all data were expressed as mean±Standard Deviation (SD).

The subject of data set [4] is HT29 cells. The data set can be described thus: Apoptosis by caspase-3 activity (NucView488/MitoView633). The format is cell-based, human. The note with it: 2 mM, 24 hours (FIG. 5B). The procedure:
In one embodiment, apoptosis was evaluated by caspase-3 activity using NucView488™ and MitoView633™ Apoptosis Assay Kit (Biotium, USA) that allows staining of living cells by a far-red fluorescent dye MitoView633™ and the intracellular caspase-3/7 activity and cells nuclei morphological changes by bright green fluorescent dye NucView488™. […] Staining was performed with 200 μL/well of culture medium containing 1 μL of NucView488™ and 1 μL of MitoView633™ for 2 hours. Cells were observed under fluorescence microscope (Leica DM6000, Germany) and image analysis performed using ImageJ software.

The subject of data set [5] is Caco-2 cells. Briefly: Cytotoxicity assay in confluent, non-differentiated Caco-2 cells (MTS). The format is cell-based, human. The note with it: isolated compounds, 24 hours, mean ± SD. How it is done: as §1, §2, §3

As to `CC(C)Cc1ccc(C(C)C(=O)O)cc1` (stereo not shown) [IBU, Ibuprofen], in data set [1], the “effect on cell cycle” value was “promoted cell cycle arrest in G1-phase”.

Turning to `CCCCCCCCCC(=O)O` [CA, Capric acid], the concentration for a half-maximal effect (EC50) at 24 h in data set [2] is 1330 ± 223 µM. In data set [3] (Homo sapiens, HT-29, isolated compounds), a half-maximal response (EC50) required 341 ± 81 µM.

As for S-Limonene, the “effect on cell cycle” value in data set [1] is “promoted cell cycle arrest in G1-phase”. In addition, in data set [4], the “induction of apoptosis via caspase-3 activity” value is given as “capable of inducing apoptosis via caspase-3 activity”. For the same molecule, the 50% effective concentration (EC50) in data set [5] stood at 2640 ± 108 µM; in data set [3] (isolated compounds), 661 ± 25 µM.

A word on the EC50: it is the concentration that produces a half-maximal response.
